# Columns and labels:
# wild oat = test: Test E wild oat; assay type: in vivo, Avena fatua; details: Preemergence
# blackgrass = test: Test E blackgrass; assay type: in vivo, Alopecurus myosuroides; details: Preemergence
# sandbur = test: Test D sandbur; assay type: in vivo, Cenchrus echinatus; details: Preemergence, 0 to 100 scale
# Procedure, shortened: (§1)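 Greenhouse pots, sandy loam, single species per pot. Preemergence tests: soil-surface application ≤1 day after planting. Compound formulated in non-phytotoxic solvent with surfactant. Visual rating 14–21 DAT, scale 0–100.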
# wheat = test: Test B pre/postemergence wheat; assay type: in vivo, Triticum aestivum; details: for Plant response rating, Wheat: Rate 250 g/ha
# Procedure, shortened: (§2)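 Response is a visual 0-to-10 score relative to untreated plants, where 0 means no effect and 10 means complete control, taken twelve to sixteen days after application. Treatments went onto soil at planting and onto foliage of 1- to 4-leaf plants, using a surfactant-containing non-phytotoxic solvent.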
# winter wheat [1] = test: Test E winter wheat; assay type: in vivo, Triticum aestivum; details: Preemergence
# winter wheat [2] = test: Test E winter wheat; assay type: in vivo, Triticum aestivum; details: Postemergence
# Procedure, shortened: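 Greenhouse test: compounds in non-phytotoxic solvent with surfactant; for postemergence, sprayed on plants at 1- to 4-leaf stage grown in 60:40 sandy loam/potting mix. Injury rated visually against untreated controls after about 21 to 28 days.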
# crabgrass = test: Test B pre/postemergence crabgrass; assay type: in vivo, Digitaria sanguinalis
# Procedure, shortened: as §2
# duck salad = test: Test B flood test duck salad; assay type: in vivo, Heteranthera limosa
# Procedure, shortened: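 Flood test on plants grown to the 2-leaf stage; treated plants kept in greenhouse twelve to sixteen days, then visually rated against controls on a 0 (no effect) to 10 (complete control) scale.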
# winter barley = test: Test E winter barley; assay type: in vivo, Hordeum vulgare; details: Preemergence
# giant foxtail = test: Test B pre/postemergence giant foxtail; assay type: in vivo, Setaria faberii
# Procedure, shortened: as §2
# green foxtail = test: Test E green foxtail; assay type: in vivo, Setaria viridis; details: Preemergence
# Spanishneedles = test: Test D Spanishneedles; assay type: in vivo, Bidens bipinnata; details: Preemergence, 0 to 100 scale
# Procedure, shortened: as §1
# large crabgrass = test: Test D large crabgrass; assay type: in vivo, Digitaria sanguinalis; details: Preemergence, 0 to 100 scale
# Procedure, shortened: as §1
# common pursiane = test: Test D common purslane; assay type: in vivo, Portulaca oleracea
# Procedure, shortened: as §1
# Italian ryegrass = test: Test E Italian ryegrass; assay type: in vivo, Lolium multiflorum; details: Preemergence
# [3] = Rate 31 g/ha, 0 to 100 scale, 0 no effect, 100 complete control
# [4] = Rate 62 g/ha, 0 to 100 scale, 0 no effect, 100 complete control
# [5] = Rate 125 g/ha, 0 to 100 scale (0 no effect, 100 complete control)
# [6] = Rate 16 g/ha, 0 no injury, 100 complete control
# [7] = Rate 32 g/ha, 0 no injury, 100 complete control
# [8] = Rate 64 g/ha, 0 no injury, 100 complete control
# [9] = Rate 125 g/ha, 0 no injury, 100 complete control
# [10] = Postemergence, Rate 62 g/ha, scale 0 to 10, 0 is no effect, 10 is complete control
# [11] = Postemergence, Rate 125 g/ha, scale of 0 to 10 where 0 is no effect and 10 is complete control
# [12] = Preemergence, Rate 62 g/ha, scale 0 to 10 (0 no effect, 10 complete control)
# [13] = Preemergence, Rate 500 g/ha, scale 0 (no effect) to 10 (complete control)
# [14] = Rate 500 g/ha, Postemergence, scale 0 to 10, 0 no effect, 10 complete control
# [15] = Postemergence, Rate 250 g/ha, scale 0 to 10, 0 no effect, 10 complete control
# [16] = Preemergence, Rate 125 g/ha, scale 0 to 10 (0 no effect, 10 complete control)
# [17] = Preemergence, Rate 250 g/ha, scale of 0 to 10 where 0 is no effect and 10 is complete control
compound,measurement,setting,value
C=CCn1c(=O)on(C(=O)N(c2ccccc2)C(C)C)c1=O [Compound 93],"Plant response rating, Wild oat",wild oat; [3],40
same,"Plant response rating, Wild oat",wild oat; [4],50
same,"Plant response rating, Wild oat",wild oat; [5],60
same,"Plant response rating, Blackgrass",blackgrass; [3],0
same,"Plant response rating, Blackgrass",blackgrass; [4],50
same,"Plant response rating, Blackgrass",blackgrass; [5],70
same,"Plant response rating, Blackgrass","blackgrass; Rate 250 g/ha, 0 to 100 scale",75
same,"Plant response rating, Sandbur",sandbur; [6],0
same,"Plant response rating, Sandbur",sandbur; [7],0
same,Sandbur plant response rating,sandbur; [8],65
same,Sandbur plant response rating,sandbur; [9],65
same,"Plant response rating, Sandbur",sandbur; Rate 250 g/ha,100
same,"Plant response rating, Sandbur",sandbur; Rate 500 g/ha,100
same,Wheat plant response rating,wheat; [10],0
same,Wheat plant response rating,wheat; [11],3
same,Wheat plant response rating,wheat; [12],3
same,Wheat plant response rating (0 to 10 scale),"wheat; Preemergence, Rate 125 g/ha, 0 is no effect, 10 is complete control",3
same,"Plant response rating, Wheat","wheat; Preemergence, scale of 0 to 10 where 0 is no effect and 10 is complete control",6
same,Wheat plant response rating,wheat; [13],8
same,"Plant response rating, Wheat","wheat; Postemergence, scale 0 to 10, 0 is no effect, 10 is complete control",4
same,Wheat plant response rating,wheat; [14],5
same,"Plant response rating, Wheat (winter)",winter wheat [1]; [3],20
same,"Plant response rating, Wheat (winter)",winter wheat [1]; [4],40
same,"Plant response rating, Wheat (winter)",winter wheat [1]; [5],40
same,"Plant response rating, Wheat (winter)","winter wheat [1]; Rate 250 g/ha, 0 to 100 scale",100
same,"Plant response rating, Wheat (winter)",winter wheat [2]; [3],0
same,"Plant response rating, Wheat (winter)","winter wheat [2]; Rate 62 g/ha, 0 to 100 scale",20
same,"Plant response rating, Wheat (winter)","winter wheat [2]; Rate 125 g/ha, 0 to 100 scale",65
same,"Plant response rating, Wheat (winter)","winter wheat [2]; Rate 250 g/ha, 0 to 100 scale (0 no effect, 100 complete control)",0
same,Crabgrass plant response rating,crabgrass; [10],7
same,Crabgrass plant response rating,crabgrass; [11],8
same,Crabgrass plant response rating,crabgrass; [15],9
same,Crabgrass plant response rating,crabgrass; [12],7
same,"Plant response rating, Crabgrass",crabgrass; [16],9
same,"Plant response rating, Crabgrass",crabgrass; [17],9
same,Crabgrass plant response rating,crabgrass; [13],10
same,Crabgrass plant response rating,crabgrass; [14],9
same,Ducksalad plant response rating,"duck salad; Postemergence (flood test species), Rate 125 g/ha, scale of 0 to 10 where 0 is no effect and 10 is complete control",0
same,Ducksalad plant response rating,duck salad; [10],0
same,Ducksalad plant response rating,"duck salad; Rate 250 g/ha, headed Pre-emergence (flood test species), scale 0 to 10 (0 no effect, 10 complete control)",0
same,"Plant response rating, Ducksalad","duck salad; Rate 500 g/ha, headed Pre-emergence (flood test species), scale 0 to 10 (0 no effect, 10 complete control)",0
same,Ducksalad plant response rating,"duck salad; Rate 500 g/ha, listed under Postemergence (flood test species), scale 0 to 10, 0 no effect, 10 complete control",0
same,Ducksalad plant response rating,"duck salad; Rate 1000 g/ha, Pre-emergence (as headed), scale 0 to 10",0
same,Ducksalad plant response rating,"duck salad; Rate 2000 g/ha, Pre-emergence (as headed), scale 0 to 10",0
same,Ducksalad plant response rating,"duck salad; flood test, listed under Postemergence, Rate 250 g/ha, scale 0 to 10, 0 no effect, 10 complete control",0
same,"Plant response rating, Barley (winter)",winter barley; [3],20
same,"Plant response rating, Barley (winter)",winter barley; [4],50
same,"Plant response rating, Barley (winter)",winter barley; [5],50
same,"Plant response rating, Barley (winter)","winter barley; Rate 250 g/ha, 0 to 100 scale",50
same,Giant foxtail plant response rating,giant foxtail; [10],6
same,Giant foxtail plant response rating,giant foxtail; [11],7
same,Giant foxtail plant response rating,giant foxtail; [15],9
same,Giant foxtail plant response rating,giant foxtail; [12],10
same,"Plant response rating, Giant foxtail",giant foxtail; [16],10
same,"Plant response rating, Giant foxtail",giant foxtail; [17],10
same,Giant foxtail plant response rating,giant foxtail; [13],10
same,Giant foxtail plant response rating,giant foxtail; [14],9
same,"Plant response rating, Green foxtail",green foxtail; [3],30
same,"Plant response rating, Green foxtail",green foxtail; [4],70
same,"Plant response rating, Green foxtail",green foxtail; [5],80
same,"Plant response rating, Spanishneedles",Spanishneedles; [6],0
same,"Plant response rating, Spanishneedles",Spanishneedles; [7],0
same,Spanishneedles plant response rating,Spanishneedles; [8],0
same,Spanishneedles plant response rating,Spanishneedles; [9],10
same,"Plant response rating, Spanishneedles",Spanishneedles; Rate 500 g/ha,45
same,"Plant response rating, Large crabgrass",large crabgrass; [6],90
same,"Plant response rating, Large crabgrass",large crabgrass; [7],98
same,"Plant response rating, Large crabgrass",large crabgrass; [8],98
same,"Plant response rating, Large crabgrass",large crabgrass; [9],100
same,"Plant response rating, Large crabgrass",large crabgrass; Rate 250 g/ha,100
same,"Plant response rating, Large crabgrass",large crabgrass; Rate 500 g/ha,100
same,"Plant response rating, C. purslane","common pursiane; Rate 16 g/ha; Preemergence; 0 to 100 scale, 0 no injury, 100 complete control",0
same,"Plant response rating, C. purslane","common pursiane; Rate 32 g/ha; Preemergence; 0 to 100 scale, 0 no injury, 100 complete control",0
same,"Plant response rating, C. purslane","common pursiane; Rate 64 g/ha, Preemergence; 0 to 100 scale, 0 no injury, 100 complete control",0
same,"Plant response rating, C. purslane","common pursiane; Rate 125 g/ha, Preemergence; 0 to 100 scale, 0 no injury, 100 complete control",0
same,"Plant response rating, C. purslane",common pursiane; Rate 250 g/ha; Preemergence; 0 to 100 scale,0
same,"Plant response rating, C. purslane","common pursiane; Rate 500 g/ha, Preemergence; 0 to 100 scale",80
same,"Plant response rating, C. purslane",common pursiane; Rate 500 g/ha; Preemergence; 0 to 100 scale,0
same,"Plant response rating, I. Ryegrass",Italian ryegrass; [3],30
same,"Plant response rating, I. Ryegrass",Italian ryegrass; [4],50
same,"Plant response rating, I. Ryegrass",Italian ryegrass; [5],70
same,"Plant response rating, I. Ryegrass","Italian ryegrass; Rate 250 g/ha, 0 to 100 scale",100
